Measurements: patent publication US20030228402A1, “Compositions and methods for preservation of food” (priority 2002, published 2003)
Where two headings read alike, the source gives them in different places.

How the values were obtained:
[1] = Solution and suspension levels of terpenes in water
Source text: The terpene and water were blended in a household blender for 30 seconds.
Examples of these levels are as follows.

[2] = system: E. coli strains AW574 or AW405; test: Lysis of E. coli by terpenes (galactosidase activity, ONPG); format: cell-based
Source text: Lysis of the cell membrane was monitored by the determination of galactosidase activity. B-galactosidase is a well-characterized cytosolic enzyme in bacteria. This enzyme is inducible in the presence of isopropyl-1-thiogalactosidase (IPTG) and assayed calorimetrically with substrate o-nitro-phenyl-B-D-galactoside (ONPG). ONPG is cleaved to release o-nitrophenol which has a peak absorbance at 420 nm.
Since intact E. coli is impermeable to both ONPG and the enzyme, the cells have to be lysed prior to enzymatic assay. Therefore, the ability of terpenes to lyse E. coli can be measured with this enzymatic assay and compared to known lysing agents.
The procedure used was as follows: E. coli strains AW574 or AW405 were cultured overnight in 10 ml tryptone broth with […] at 35° C. Cells were allowed to grow after an absorbance equal to 0.9 was reached.
Cells were harvested, washed with phosphate buffer and resuspended to an absorbance equal to 0.5.
0.1 ml of the bacteria culture was added to 0.9 ml of buffer, warmed to 30° C., and then 80 μl of terpenes (85% terpenes and 15% polysorbate-80), 80 μl water (background), or 40 μl chloroform plus 40 μl 1% SDS in water (positive control) were added.
After the addition of the lysing agents the tubes were mixed for 10 seconds, and 0.2 ml of ONPG (4 mg/ml water) was added, then incubated for 5 minutes. The 5 enzyme activity was stopped with 0.5 ml of 1 M sodium carbonate. After being centrifuged for 3 minutes at 1,500×g, supernatant was transferred to cuvettes and read at 420 nm.
The relative degree of lysis caused by terpenes was calculated as follows: 100× (O.D. terpenes—O.D. water)/(O.D. chloroform—O.D. water).

E. coli strain AW574 = test: E. coli growth (O.D.) with single or combined terpenes; format: cell-based; details: single terpene 2 μMol; 24 hours
Protocol: E. coli strain AW574 was grown in tryptone broth to an exponential growth phase (O.D. between 0.4 and 1.0 at 590 nm). One tenth of this growth was inoculated to 10 ml of tryptone broth followed by the addition of individual terpenes or as indicated on Table 8; then incubated for 24 hours at 35-37° C., and the O.D. determined in each tube. The concentration of terpenes was 1 or 2 μMol. Each treatment was repeated in triplicate. The results are expressed as percentage bacterial growth as compared to the control treatment.
E. coli strain AW574 was grown in tryptone broth to an exponential growth phase (O.D. between 0.4 and 1.0 at 590 nm).
One tenth of this growth was inoculated to 10 ml of tryptone broth followed by the addition of individual terpenes or as indicated on Table 18; then incubated for 24 hours at 35-37° C. and the O.D. determined in each tube.
The concentration of terpenes was 1 or 2 μMol. Each treatment was repeated in triplicate.
The results are expressed as percentage bacterial growth as compared to the control treatment.

Mycoplasma pneumoniae = test: Killing of Mycoplasma pneumoniae, color change of SP4 medium; format: cell-based; details: for killing effect (color change of first tube): three days after the 10-fold dilution
Protocol: This mixture was then used to make concentrations of 2500 ppm in sterile phosphate buffer saline (PBS) by blending the mixture in PBS for 40 seconds. […] PBS containing 25 ppm Tween® 80 or PBS alone was used to treat cells suspension as controls. […] After 40 hours of treatment, 10-fold serial dilution was performed to 10 (−10) by first taking 0.1 mL of the treated culture suspension was added into 0.9 mL of fresh SP4 (Whitcomb (1983); SP4 media is commercially available (Remel, Lenexa, Kans., USA)). All the tubes were then incubated at 37° C., and a color change of the medium was used for the indication of the cells that either were killed or survived from the treatment. Color change was from red to yellow because Mycoplasma pneumoniae produces acid during its growth. All the treatments were performed in duplicate.

erythrocytes = format: cell-based; details: 20 min
Protocol: These mixtures were incubated for 20 minutes.

E. coli = details: cited from earlier work
[3] = Break down of terpenes in the presence of oxygen / potency of solution; format: physicochemical; details: 500 ppm solution
Source text: Terpenes will break down in the presence of oxygen. Citral, for example, is an aldehyde and will decay (oxygenate) over a period of days.

[4] = 62.5, 125 and 250 ppm, 40 hours treatment

Molecule: C=C(C)C1CC=C(C)C(=O)C1 (stereo not shown) [Carvone]
- Level (maximum level of terpene solubilized, solution level) ([1]; true solution in water without surfactant, high shear mixing): 500 ppm
- Relative lysis % ([2]; 404 μM): 3.2%
- Relative lysis % ([2]; 4,040 μM): 22%
- Relative lysis % ([2]; 40,400 μM): 54%
- % growth (bacterial growth as compared to the control treatment) (E. coli strain AW574): 63.00%

Molecule: L-carvone
- killing effect (color change of first tube) (Mycoplasma pneumoniae; [4]): no killing effects
- tubes of the 10-fold dilution series that changed color (Mycoplasma pneumoniae; 62.5, 125 and 250 ppm, 6 days after the 10-fold dilution): second and third tube

Molecule: CC(=O)/C=C/C1=C(C)CCCC1(C)C [b-ionone]
- Level (maximum level of terpene solubilized, solution level) [1]: 500 ppm
- killing effect (color change of first tube) (Mycoplasma pneumoniae; [4]): killing effect
- tubes of the 10-fold dilution series that changed color (Mycoplasma pneumoniae; 62.5 ppm, 6 days after the 10-fold dilution): only the first tube
- killing of all cells (Mycoplasma pneumoniae; 125 and 250 ppm, 40 hours treatment, 6 days after the 10-fold dilution): may have completely killed all cells
- Relative lysis % ([2]; 0.0308 μM): 1.3%
- Relative lysis % ([2]; 0.308 μM): 4.78%
- Relative lysis % ([2]; 3.08 μM): 23%
- Relative lysis % ([2]; 30.8 μM): 44%
- Relative lysis % ([2]; 308 μM): 52%
- % growth (bacterial growth as compared to the control treatment) (E. coli strain AW574): 84.00%

Molecule: CC(C)=CCCC(C)=CC=O [Citral, 3,7-dimethyl-2,6-octadien-1-al]
- concentration that will lyse human erythrocytes (erythrocytes): approximately 1000 ppm
- citral in growth media with bactericidal effect (E. coli): 0.08%
- time in which the solution will lose half its potency [3]: 2-3 weeks

Molecule: CC(C)=CCC/C(C)=C/CO [Geraniol]
- Level (maximum level of terpene solubilized, solution level) [1]: 500 ppm
- Relative lysis % ([2]; 3.63 μM): 2.4%
- Relative lysis % ([2]; 36.3 μM): 4%
- Relative lysis % ([2]; 363 μM): 34%
- Relative lysis % ([2]; 3,630 μM): 98%
- Relative lysis % ([2]; 36,300 μM): 96%
- % growth (bacterial growth as compared to the control treatment) (E. coli strain AW574): 54.00%

Molecule: Terpeniol
- Level (maximum level of terpene solubilized, solution level) [1]: 500 ppm
